Data on ten substances can be found in patent US20080027145A1, “Therapeutic Molecules and Methods for Generating and/or Selecting Same” (priority 2004, published 2008).

In general, IC50 refers to the point on the concentration scale where inhibition reaches its midpoint.

The test system of test [1] is pro-survival proteins (Bcl-2, Bcl-xL, Bcl-w, Mcl-1, A1). As to the kind of experiment: Solution competition assay, statements spanning several pro-survival proteins. Format: binding, human and mouse. The conditions noted are these: for binding preference among pro-survival proteins: Bcl-2, Bcl-xL, Bcl-w, Mcl-1, A1. How it is done:
(§1) The relative affinities of BH3 peptides for pro-survival Bcl-2 proteins were assessed by comparing their abilities to compete with immobilized ^wtBimBH3 peptide for binding to Bcl-2-like proteins (Wilson-Annan et al., Supra). A fixed sub-saturating amount (10 nM) of a pro-survival Bcl-2 protein was incubated with varying amounts of competitor BH3 peptide in HBS for >2 hr on ice. The mixtures were then injected over a sensor chip containing a channel bearing mouse ^wtBimBH3 and a control channel with mouse ^4EBimBH3 immobilized. The baseline response (control channel) was subtracted to obtain the absolute binding response. Taking the response for the pro-survival protein alone as the maximal response (100%), the relative residual binding (%) in the presence of increasing amounts of competitor peptides at a given injection time point (430 s) was then calculated. […] Theoretically, IC50=[A]/2+KD, where [A] is the analyte concentration.
(§2) Some of recombinant proteins (Bcl-2, Bcl-xL, A1) studied contain cysteine residues but the behavior of Bcl-2 or Bcl-xL was not affected by dithiothreitol (DTT).
(§3) To assess if other BH3 peptides bind pro-survival proteins similarly, we directly compared their binding affinities in solution using a competitive binding assay. In such assays, the quality and absolute quantity of target proteins are less critical than in direct binding, and solution binding precludes the steric hindrance encountered with some immobilized peptides. FIG. 1C illustrates the approach: pre-incubation of Bcl-xL in solution with increasing amounts of BikBH3 reduced its binding to ^wtBimBH3 (FIG. 1D). From the attenuation in binding, the IC50 (competitor peptide concentration that halves binding) of BikBH3 can be calculated (FIG. 1E). As the IC50 values reflect relative binding affinities (see Experimental Procedures), we used this assay to compare the binding affinities of eight BH3 peptides (Table 3) to the five pro-survival proteins. […] Their binding properties fell into several classes (FIG. 2B and FIG. 4). […] Contrary to the prevailing view, the pro-survival proteins also had unique patterns for BH3 binding: Bcl-xL behaved like Bcl-w, with Bcl-2 more distinct, whereas Mcl-1 and A1 formed a separate group (FIG. 2B).

Test [2] has as its system mouse embryonic fibroblasts (MEFs). The test is described as follows: Long-term colony assay of retrovirally infected MEFs. Format: cell-based. The conditions noted are these: colonies after 6 days. How it is done: FIG. 7 is a graphical representation showing that BH3-only proteins that bind selective targets have weak killing activity. (A) The affinities of BH3-only peptides for pro-survival proteins (tabulated in FIG. 3A) were inversely plotted to facilitate comparison of the patterns of BH3 binding. […] Immortalized 3T9 MEFs were infected with retroviruses expressing only GFP (control), or one of the BH3-only proteins and GFP. The viability of the infected (GFP^+ve) cells was determined by PI exclusion 24 hours after infection. The histograms represent means±1SD of at least 3 experiments. […] The filter was probed with a rat monoclonal anti-FLAG antibody. *Degradation product of Mcl-1. […] Viability of MEFs infected with retroviruses encoding the indicated proteins (GFP^+ve) was analyzed 24 hours after infection. The histograms represent means±1SD of at least 3 experiments. (E) Long-term survival of MEFs infected with BH3 expressing retroviruses. One hundred retrovirally-infected cells were plated and the absolute number of GFP^+ve colonies formed after 6 days scored. […] The data represent the average number of GFP^+ve colonies formed±1SD from at least 3 experiments. […] Viability of the infected (GFP^+ve) cells was scored 24 hours after infection (FIGS. 7A, 7B) and in long-term colony assays (FIG. 7E).

Test [3] has the same test system. The test is described as follows: Killing of MEFs after retroviral expression, viability 24 hours after infection. Format: cell-based. The conditions noted are these: retroviral expression, 24 hours after infection. How it is done: FIG. 7 is a graphical representation showing that BH3-only proteins that bind selective targets have weak killing activity. (A) The affinities of BH3-only peptides for pro-survival proteins (tabulated in FIG. 3A) were inversely plotted to facilitate comparison of the patterns of BH3 binding. […] Immortalized 3T9 MEFs were infected with retroviruses expressing only GFP (control), or one of the BH3-only proteins and GFP. The viability of the infected (GFP^+ve) cells was determined by PI exclusion 24 hours after infection. The histograms represent means±1SD of at least 3 experiments. […] The filter was probed with a rat monoclonal anti-FLAG antibody. *Degradation product of Mcl-1. […] Viability of MEFs infected with retroviruses encoding the indicated proteins (GFP^+ve) was analyzed 24 hours after infection. The histograms represent means±1SD of at least 3 experiments. (E) Long-term survival of MEFs infected with BH3 expressing retroviruses. One hundred retrovirally-infected cells were plated and the absolute number of GFP^+ve colonies formed after 6 days scored. […] The data represent the average number of GFP^+ve colonies formed±1SD from at least 3 experiments. To assess the biological relevance of the selective binding, retroviral delivery was used to compare the ability of different BH3-only proteins to kill wild-type mouse embryonic fibroblasts (MEFs). To monitor expression of the introduced gene, a vector (pMIG) in which its expression is coupled via an internal ribosomal entry site (IRES) to that of green fluorescent protein (GFP) was used (Van Parijs et al., Immunity 11:281-288, 1999). The cells were efficiently infected (>90%) and the introduced BH3-only proteins were comparably expressed. Viability of the infected (GFP^+ve) cells was scored 24 hours after infection (FIGS. 7A, 7B) and in long-term colony assays (FIG. 7E). […] Thus, the neutralization of Mcl-1 by Noxa should be complemented by co-expression of a BadBH3 to neutralize Bcl-2 and Bcl-xL in MEFs (FIG. 8A).

For a further test, the target named is T1, Bcl-xL (Homo sapiens, UniProt Q07817).
T1 construct: Human Bcl-xL (Acc. no. NP_612815; residues 1-209); GST (N, cleaved yes); made in house
As to the kind of experiment: Solution competition assay (competition with immobilized wtBimBH3, biosensor). The conditions noted are these: for fold tighter than wild-type peptide: IC50 ratio to wild-type Noxa BH3; for increase in binding to Bcl-xL: versus wt NoxaBH3. The format is binding. How it is done:
as §1, §2, §3

The next test addresses T2, Bcl-2 (Homo sapiens, UniProt P10415).
T2 construct: Human Bcl-2 (Acc. no. NP_000624; residues 1-217); made in house
The test is described as above. Format: binding. To be noted: for binding to Bcl-2: Noxa mutant peptides. How it is done: as §1, §2, §3

For another test, the target named is T3, Mcl-1 (Mus musculus, UniProt P97287).
T3 construct: mouse Mcl-1 (Acc. no. NP_031588; residues 152-308); GST (N, cleaved yes); made in house
The description is as above. The format is binding. The conditions noted are these: versus wt NoxaBH3. How it is done: as §1, §2, §3

The target of a further test is T4, A1 ΔC20 (Mus musculus, UniProt Q07440).
T4 construct: mouse A1 (Acc. no. NP_033872; residues 1-152); GST (N, cleaved yes); made in house
T4 sequence (Q07440 1-152): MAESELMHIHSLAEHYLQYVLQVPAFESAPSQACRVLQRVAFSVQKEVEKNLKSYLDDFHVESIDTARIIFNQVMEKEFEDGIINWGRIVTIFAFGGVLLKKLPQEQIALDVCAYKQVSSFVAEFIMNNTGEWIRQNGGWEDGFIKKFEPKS
As to the kind of experiment: Direct binding to immobilized BH3 peptide, Biacore biosensor. The conditions noted are these: BadBH3 or NoxaBH3 immobilized chip. How it is done: (§4) Recombinant human Bcl-xL ΔC24, mouse Mcl-1 ΔN151 ΔC23 and mouse A1 ΔC20 were expressed as GST fusion proteins and cleaved off Glutathione Sepharose columns as described (Day et al., Cell Death Differ 6:1125-1132, 1999; Hinds et al., EMBO J 22:1497-1507, 2003).
(§5) Affinity measurements were performed at room temperature on a Biacore 3000 biosensor (Biacore) with HBS (10 mM HEPES pH 7.2, 150 mM NaCl, 3.4 mM EDTA, 0.005% Tween 20) as the running buffer. Mouse 26-mer ^wtBimBH3, ^4EBimBH3 mutant, BadBH3, NoxaBH3 or control irrelevant peptides were immobilized onto CM5 sensor chips using amine-coupling chemistry (Wilson-Annan et al., Supra). To assess the binding affinities of pro-survival Bcl-2-like proteins for BimBH3 directly, the proteins were directly injected into the sensor chip at 20 μl/min. Residual bound proteins were desorbed with 50 mM NaOH or 6 M GuHCl (pH 7.2), followed by two washes with running buffer. Binding kinetics were derived from sensorgrams, following subtraction of baseline responses, using BIA evaluation software (version 3, Biacore) (Wilson-Annan et al., Supra).
(§6) The binding constants of the pro-survival molecules for ^wtBimBH3, immobilized on sensor chip, were determined using biosensor experiments as described in Hinds et al., Supra; Wilson-Annan et al., Supra.

For another test, the target named is T5, Mcl-1 ΔN151 ΔC23 (Mus musculus, UniProt P97287).
T5 construct: mouse Mcl-1 (Acc. no. NP_031588; residues 152-308); GST (N, cleaved yes); made in house
The description is as above. To be noted: BadBH3 or NoxaBH3 immobilized chip. How it is done:
as §4, §5, §6

A further test deals with T6, Bcl-w (Homo sapiens, UniProt Q92843, A128E/C29S).
T6 construct: human Bcl-w (Acc. no. NP_004041; residues 1-164; C29S A128E); made in house
T6 sequence (Q92843 1-164 C29S/A128E): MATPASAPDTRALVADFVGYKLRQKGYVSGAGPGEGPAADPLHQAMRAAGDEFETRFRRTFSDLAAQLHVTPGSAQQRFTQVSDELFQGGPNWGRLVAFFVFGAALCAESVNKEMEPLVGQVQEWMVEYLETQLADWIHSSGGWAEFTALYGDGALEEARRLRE
As to the kind of experiment: Solution competition assay (competition with immobilized wtBimBH3, biosensor). Format: binding. Here is the method:
as §1, §2, §3

The mark [4] stands for this setting: competitor peptide vs immobilized wtBimBH3, read-out: IC50 for Bcl-xL.

Entries after “also recorded” stand apart in the source; their conditions may differ. Where two headings read alike, the source gives them in different places. Ends that are not written are not given here. A value given as a limit tells only on which side of the number the result lay.

T2 sequence (P10415 1-217): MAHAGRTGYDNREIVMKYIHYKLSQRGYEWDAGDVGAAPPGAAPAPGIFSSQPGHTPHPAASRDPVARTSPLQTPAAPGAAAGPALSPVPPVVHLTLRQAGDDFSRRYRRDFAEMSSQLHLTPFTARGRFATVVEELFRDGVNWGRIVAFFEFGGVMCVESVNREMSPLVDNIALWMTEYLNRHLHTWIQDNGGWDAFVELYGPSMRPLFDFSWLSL
T1 sequence (Q07817 1-209): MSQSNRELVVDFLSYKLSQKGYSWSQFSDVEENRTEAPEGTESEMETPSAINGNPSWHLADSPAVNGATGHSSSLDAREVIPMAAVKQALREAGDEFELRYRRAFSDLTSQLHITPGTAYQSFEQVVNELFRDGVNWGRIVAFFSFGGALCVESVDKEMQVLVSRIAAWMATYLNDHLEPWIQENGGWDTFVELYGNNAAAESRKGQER
T3 sequence (P97287 152-308): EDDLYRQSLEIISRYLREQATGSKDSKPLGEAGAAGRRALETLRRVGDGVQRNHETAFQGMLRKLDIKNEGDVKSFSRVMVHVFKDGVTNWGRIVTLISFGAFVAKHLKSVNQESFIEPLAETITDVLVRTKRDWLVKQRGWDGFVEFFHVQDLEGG
T5 sequence (P97287 152-308): as above

Take “BidBH3: human Bid BH3 peptide residues 81-104, DIIRNIARHLAQVGDSMDRSIPPG”: the “binding preference among pro-survival proteins” value in [1] is “preferred Bcl-xL, Bcl-w and A1 over Bcl-2 or Mcl-1”.

In the case of “BikBH3: human Bik BH3 peptide residues 51-75, MEGSDALALRLACIGDEMDVSLRAP”, in [1], the “binding preference among pro-survival proteins” value is “preferred Bcl-xL, Bcl-w and A1 over Bcl-2 or Mcl-1”.

With “Bims: Bim isoform, the most potent, expressed from retrovirus in MEFs”, the “long-term survival, GFP+ve colonies” value in [2] was “failed to generate colonies; also recorded: No colonies”. Further, in test [3], the “killing of MEFs” value is “soon died”.

Turning to “BmfBH3: mouse Bmf BH3 peptide residues 128-151, HRAEVQIARKLQCIADQFHRLHTQ”, the “binding preference among pro-survival proteins” value in [1] is “showed similar preferences”.

Take “H-PAELEVECATQLRRFGDELNFRQKLL-OH [Noxa (18-43) mt1]”: on Bcl-xL, the “fold tighter than wild-type peptide” value is reported as “at least 17 fold” and the “increase in binding to Bcl-xL” value is recorded as “more than 20 fold”. Moreover, at Bcl-2, the “binding to Bcl-2” value is on record as “remained weak”.

For the substance “H-PAELEVECATQLRRIGDELNFRQKLL-OH [Noxa (18-43) mt3]”, the “Mcl-1 binding” value on Mcl-1 was “slightly improved”. The IC50 at Bcl-xL (setting [4]) came to 0.11 µM. Also, the “binding to Bcl-2” value at Bcl-2 is “remained weak”.

As for “H-PAELEVECATQLRRIGDKLNFRQKLL-OH [Noxa (18-43) mt2]”, at Bcl-xL, the “fold tighter than wild-type peptide” value was “at least 90 fold” and the “increase in binding to Bcl-xL” value is “more than 100 fold”. Besides, the “binding to Bcl-2” value at Bcl-2 is “remained weak”.

In the case of “Hrk: BH3-only protein Hrk expressed from retrovirus in MEFs”, the “killing of MEFs” value in [3] is given as “much less potent killers”.

“PAELEVECATQLRRFGDKLNFRQKLL [Noxa (18-43)]”: the “binding of A1 to immobilized peptide” value on A1 ΔC20 was “bound”. Besides, at Mcl-1 ΔN151 ΔC23, the “binding of Mcl-1 to immobilized peptide” value is recorded as “bound”. The IC50 is above 100 µM on Bcl-xL (Bcl-xL, b59-60 do not name the target, values match Table 4, read-out: IC50); above 100 µM at Bcl-xL (setting [4]); above 100 µM on Bcl-2 (Bcl-2, one of 'the others'); above 100 µM on Bcl-w (Bcl-w, one of 'the others', read-out: IC50); above 100 µM on Bcl-w (competitor peptide vs immobilized wtBimBH3, read-out: IC50 for Bcl-w); “nM range” in test [1] (Mcl-1 and A1). Further, the “binding preference among pro-survival proteins” value in test [1] (listed as Noxa BH3) is “selectively binds Mcl-1 and A1”; in [1] (listed as NoxaBH3) it was “highly selective for Mcl-1 and A1”.

With “PumaBH3: human Puma BH3 peptide residues 130-155, EEQWAREIGAQLRRMADDLNAQYERR”, in test [1], the “binding preference among pro-survival proteins” value is recorded as “comparable affinities for all the pro-survival proteins”.
